# Experimental data as given in ChEMBL document CHEMBL4804283, “Stk19 inhibitors for treatment of cancer” (2020).
# Calls of active or inactive are those of the source. No cut-off for these calls is given here.
# Assays:
# [1] = molecular target: T1, Inactive serine/threonine-protein kinase 19 (Homo sapiens) (UniProt P49842); assay: Inhibition of recombinant human STK19 assessed as NRAS phosphorylation at 1-3 uM relative to control
# T1 sequence (whole entry): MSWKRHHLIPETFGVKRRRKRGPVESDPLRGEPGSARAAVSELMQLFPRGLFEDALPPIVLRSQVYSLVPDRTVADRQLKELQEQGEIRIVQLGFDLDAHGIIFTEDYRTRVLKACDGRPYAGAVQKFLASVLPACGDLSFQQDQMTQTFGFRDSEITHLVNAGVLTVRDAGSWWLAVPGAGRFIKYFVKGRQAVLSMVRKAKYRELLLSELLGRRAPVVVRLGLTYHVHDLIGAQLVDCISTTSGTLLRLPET
# [2] = system: T2, Inactive serine/threonine-protein kinase 19 (Homo sapiens), P49842 [D89N]; assay: Inhibition of STK19 D89N mutant in human primary melanocytes at 0.1-3 uM relative to control; format: cell-based
# T2 sequence (whole entry): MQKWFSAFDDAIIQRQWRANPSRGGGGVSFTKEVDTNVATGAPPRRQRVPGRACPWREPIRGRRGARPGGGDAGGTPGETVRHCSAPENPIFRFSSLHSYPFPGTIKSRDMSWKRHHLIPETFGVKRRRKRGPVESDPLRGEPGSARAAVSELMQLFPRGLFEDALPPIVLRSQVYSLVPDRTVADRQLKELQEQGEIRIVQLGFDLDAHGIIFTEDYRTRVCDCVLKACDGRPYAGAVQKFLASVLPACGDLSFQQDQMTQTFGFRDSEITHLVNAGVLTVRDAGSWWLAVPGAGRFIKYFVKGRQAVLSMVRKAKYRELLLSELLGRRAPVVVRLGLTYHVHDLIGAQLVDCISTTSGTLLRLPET
# [3] = Toxicity in C57BL/6J mouse assessed as effect on animal body weight at 25 mg/kg, administered twice daily for 20 days; format: organism-based; settings: in vivo, 480 h
# [4] = Toxicity in C57BL/6J mouse assessed as effect on aspartate aminotransferase level at 25 mg/kg, administered twice daily for 20 days; format: organism-based; settings: in vivo, 480 h
# [5] = Toxicity in C57BL/6J mouse assessed as effect on total bilirubin level at 25 mg/kg, administered twice daily for 20 days; format: organism-based; settings: in vivo, 480 h
# [6] = Toxicity in C57BL/6J mouse assessed as effect on total protein level at 25 mg/kg, administered twice daily for 20 days; format: organism-based; settings: in vivo, 480 h
# [7] = Toxicity in C57BL/6J mouse assessed as effect on phosphorous level at 25 mg/kg, administered twice daily for 20 days; format: organism-based; settings: in vivo, 480 h
# [8] = Toxicity in C57BL/6J mouse assessed as kidney histology at 25 mg/kg, administered twice daily for 20 days by H and E staining method; format: organism-based; settings: in vivo, 480 h
# [9] = Toxicity in C57BL/6J mouse assessed as brain histology at 25 mg/kg, administered twice daily for 20 days by H and E staining method; format: organism-based; settings: in vivo, 480 h
# hTERT [10] = assay: Inhibition of colony formation in hTERT/p53DD/CDK4 (R24C) immortal melanocytes expressing STK19 D89N mutant at 3 uM relative to control; format: functional; settings: Homo sapiens
# hTERT [11] = assay: Antitumor activity against hTERT/p53DD/CDK4 (R24C) immortal melanocytes expressing wild-type STK19 xenografted in nude mouse assessed as reduction in tumor formation; format: functional; settings: Homo sapiens
# SK-MEL-2 [12] = assay: Antitumor activity against human SK-MEL-2 cells xenografted in nude mouse assessed as inhibition of cancer cell proliferation at 25 mg/kg, administered for 21 days; format: functional, organism-based
# SK-MEL-2 [13] = assay: Antitumor activity against human SK-MEL-2 cells xenografted in nude mouse assessed as induction of apoptosis at 25 mg/kg, administered for 21 days; format: functional, organism-based
# SK-MEL-2 [14] = assay: Antitumor activity against human SK-MEL-2 cells xenografted in nude mouse assessed as induction of apoptosis at 50 mg/kg, administered for 21 days; format: functional, organism-based
# [15] = Toxicity in nude mouse xenografted with human SK-MEL-2 cells assessed as increase in animal survival at 25 mg/kg; format: organism-based; settings: in vivo
# [16] = system: T2, Inactive serine/threonine-protein kinase 19 (Homo sapiens), P49842 [D89N]; assay: Inhibition of STK19 in STK19-depleted human primary melanocytes expressing STK19 D89N mutant at 1-3 uM assessed as NRAS phosphorylation relative to control; format: tissue-based; settings: Melanocyte
# SK-MEL-2 [17] = assay: Inhibition of G9a in nude mouse xenografted with human SK-MEL-2 cells assessed as decrease in H3K9 methylation at 50 mg/kg; format: functional, organism-based
# [18] = molecular target: T1, Inactive serine/threonine-protein kinase 19 (Homo sapiens); assay: Inhibition of STK19 in human SK-MEL-2 cells expressing NRAS Q61R and wild-type BRAF at 1-3 uM assessed as NRAS signaling relative to control; format: cell-based
# [19] = molecular target: T1, Inactive serine/threonine-protein kinase 19 (Homo sapiens); assay: Inhibition of STK19 in human WM2032 cells expressing NRAS Q61R and wild-type BRAF at 1-3 uM assessed as NRAS signaling relative to control; format: cell-based
# [20] = molecular target: T1, Inactive serine/threonine-protein kinase 19 (Homo sapiens); assay: Inhibition of STK19 in human SK-MEL-2 cells expressing NRAS Q61R and wild-type BRAF at 1-3 uM assessed as MEK-ERK signaling relative to control; format: cell-based
# [21] = molecular target: T1, Inactive serine/threonine-protein kinase 19 (Homo sapiens); assay: Inhibition of STK19 in human UACC62 cells expressing wild-type NRAS and BRAF V600E mutant at 1-3 uM assessed as MEK-ERK signaling relative to control; format: cell-based; settings: UACC-62
# [22] = molecular target: T1, Inactive serine/threonine-protein kinase 19 (Homo sapiens); assay: Inhibition of STK19 in human A375 cells expressing wild-type NRAS and BRAF V600E mutant at 1-3 uM assessed as PI3K signaling relative to control; format: cell-based; settings: A-375
# A-375 = assay: Growth inhibition of human A375 cells expressing wild-type NRAS and BRAF V600E mutant at 1-3 uM relative to control; format: functional, cell-based
# UACC-62 [23] = assay: Growth inhibition of human UACC62 cells expressing wild-type NRAS and BRAF V600E mutant at 1-3 uM relative to control; format: functional, cell-based
# SK-MEL-2 [24] = assay: Induction of apoptosis in human SK-MEL-2 cells expressing NRAS Q61R and wild-type BRAF at 1-3 uM relative to control; format: functional, cell-based
# UACC-62 [25] = assay: Induction of apoptosis in human UACC62 cells expressing wild-type NRAS and BRAF V600E mutant at 1-3 uM relative to control; format: functional, cell-based
# [26] = molecular target: T1, Inactive serine/threonine-protein kinase 19 (Homo sapiens); assay: Inhibition of STK19 in human SK-MEL-2 cells expressing NRAS Q61R and wild-type BRAF at 100 nM assessed as NRAS phosphorylation relative to control; format: cell-based
# [27] = molecular target: T1, Inactive serine/threonine-protein kinase 19 (Homo sapiens); assay: Inhibition of STK19 in human SK-MEL-2 cells expressing NRAS Q61R and wild-type BRAF at 300 nM assessed as NRAS phosphorylation relative to control; format: cell-based
# [28] = molecular target: T1, Inactive serine/threonine-protein kinase 19 (Homo sapiens); assay: Inhibition of STK19 in human SK-MEL-2 cells expressing NRAS Q61R and wild-type BRAF at 300 nM assessed as H3K9 methylation relative to control; format: cell-based
# [29] = molecular target: T1, Inactive serine/threonine-protein kinase 19 (Homo sapiens); assay: Inhibition of STK19 in human WM2032 cells expressing NRAS Q61R and wild-type BRAF at 100 nM assessed as NRAS phosphorylation relative to control; format: cell-based
# [30] = molecular target: T1, Inactive serine/threonine-protein kinase 19 (Homo sapiens); assay: Inhibition of STK19 in human WM2032 cells expressing NRAS Q61R and wild-type BRAF at 300 nM assessed as NRAS phosphorylation relative to control; format: cell-based
smiles,measurement,setting,value
COc1cc2nc(NC3CC3)nc(NC3CCN(C(C)C)CC3)c2cc1OC.O=C(O)C(F)(F)F,Activity,[1],Active
same,inhibition,[2],Active
same,Activity,[3],Non-Toxic
same,Activity,[4],Non-Toxic
same,Activity,[5],Non-Toxic
same,Activity,[6],Non-Toxic
same,Activity,[7],Non-Toxic
same,Activity,[8],Non-Toxic
same,Activity,[9],Non-Toxic
same,Activity,hTERT [10],Active
same,Activity,hTERT [11],Active
same,Activity,SK-MEL-2 [12],Active
same,Activity,SK-MEL-2 [13],Active
same,Activity,SK-MEL-2 [14],Active
same,Activity,[15],Non-Toxic
same,inhibition,[16],Active
same,inhibition,SK-MEL-2 [17],inactive
same,inhibition,[18],Active
same,inhibition,[19],Active
same,inhibition,[20],Active
same,inhibition,[21],inactive
same,inhibition,[22],inactive
same,Activity,A-375,inactive
same,Activity,UACC-62 [23],inactive
same,Activity,SK-MEL-2 [24],Active
same,Activity,UACC-62 [25],inactive
same,inhibition,[26],Active
same,inhibition,[27],Active
same,inhibition,[28],inactive
same,inhibition,[29],Active
same,inhibition,[30],Active
